Data from ChEMBL document CHEMBL1201862, “PubChem BioAssay data set” (2004).
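48-hour exposure; five concentrations; linearly interpolated endpoints. Abbreviation: GI50, concentration required for 50% inhibition of growth.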 Calls of active or inactive are those of the source. Rule as the data show it: active = GI50 up to about 1.1 µM and inactive = higher.

Assays:
Experiment in all cases: DTP human tumour cell line panel, 48 h
NCI-H23 = system: NCI-H23
U-251 = system: U-251
SK-MEL-5 = system: SK-MEL-5
XF498 = system: XF498
HOP-62 = system: HOP-62
SK-MEL-28 = system: SK-MEL-28
SR = system: SR
COLO 205 = system: COLO 205
CAKI-1 = system: CAKI-1
SNB-19 = system: SNB-19
KM12 = system: KM12
RXF 393 = system: RXF 393
HOP-92 = system: HOP-92
HCT-15 = system: HCT-15
HCC 2998 = system: HCC 2998
SNB-78 = system: SNB-78
OVCAR-8 = system: OVCAR-8
LXFL 529 = system: LXFL 529
HCT-116 = system: HCT-116
UO-31 = system: UO-31
SF-268 = system: SF-268
786-0 = system: 786-0
NCI-H522 = system: NCI-H522
NCI-H460 = system: NCI-H460
HT-29 = system: HT-29
SK-OV-3 = system: SK-OV-3
OVCAR-5 = system: OVCAR-5
SK-MEL-2 = system: SK-MEL-2
UACC-62 = system: UACC-62
DLD-1 = system: DLD-1
CCRF-CEM = system: CCRF-CEM
EKVX = system: EKVX
K562 = system: K562
TK-10 = system: TK-10
M19-MEL = system: M19-MEL
Malme-3M = system: Malme-3M
NCI-H226 = system: NCI-H226
SN12C = system: SN12C
SF-539 = system: SF-539
M14 = system: M14
DMS-273 = system: DMS-273
OVCAR-3 = system: OVCAR-3
MOLT-4 = system: MOLT-4
SNB-75 = system: SNB-75
IGROV-1 = system: IGROV-1
SW-620 = system: SW-620
LOX IMVI = system: LOX IMVI
SF-295 = system: SF-295
A549 = system: A549
KM-20L2 = system: KM-20L2
UACC-257 = system: UACC-257
HL-60 = system: HL-60
OVCAR-4 = system: OVCAR-4
A498 = system: A498
ACHN = system: ACHN
DMS-114 = system: DMS-114
RPMI-8226 = system: RPMI-8226
HOP-18 = system: HOP-18

O=C(CSc1nc(=O)c(-c2ccccc2NC(=O)C(F)(F)F)n[nH]1)NC(=O)Nc1ccccc1
GI50 (NCI-H23): > 100 µM (inactive)
GI50 (U-251): > 100 µM (inactive)
GI50 (SK-MEL-5): > 10 µM (inactive)
GI50 (XF498): > 100 µM (inactive)
GI50 (HOP-62): > 100 µM (inactive)
GI50 (SK-MEL-28): > 100 µM (inactive)
GI50 (SR): > 100 µM (inactive)
GI50 (COLO 205): > 100 µM (inactive)
GI50 (CAKI-1): 48.1 µM (inactive)
GI50 (SNB-19): > 100 µM (inactive)
GI50 (KM12): > 100 µM (inactive)
GI50 (RXF 393): > 100 µM (inactive)
GI50 (HOP-92): > 100 µM (inactive)
GI50 (HCT-15): > 100 µM
GI50 (HCC 2998): > 100 µM (inactive)
GI50 (SNB-78): > 100 µM (inactive)
GI50 (OVCAR-8): > 100 µM (inactive)
GI50 (LXFL 529): 79.6 µM (inactive)
GI50 (HCT-116): > 100 µM (inactive)
GI50 (UO-31): 38.1 µM (inactive)
GI50 (SF-268): 56.6 µM (inactive)
GI50 (786-0): > 100 µM (inactive)
GI50 (NCI-H522): 76.4 µM (inactive)
GI50 (NCI-H460): 72.6 µM (inactive)
GI50 (HT-29): > 100 µM (inactive)
GI50 (SK-OV-3): 39 µM (inactive)
GI50 (OVCAR-5): > 100 µM (inactive)
GI50 (SK-MEL-2): > 100 µM (inactive)
GI50 (UACC-62): 50 µM (inactive)
GI50 (DLD-1): 18.9 µM (inactive)
GI50 (CCRF-CEM): 94.8 µM (inactive)
GI50 (EKVX): 55.5 µM (inactive)
GI50 (K562): 61.4 µM (inactive)
GI50 (TK-10): 45.9 µM (inactive)
GI50 (M19-MEL): > 100 µM (inactive)
GI50 (Malme-3M): > 100 µM (inactive)
GI50 (NCI-H226): 67.8 µM (inactive)
GI50 (SN12C): > 100 µM (inactive)
GI50 (SF-539): > 100 µM (inactive)
GI50 (M14): > 100 µM (inactive)
GI50 (DMS-273): 90.8 µM (inactive)
GI50 (OVCAR-3): > 100 µM (inactive)
GI50 (MOLT-4): > 100 µM (inactive)
GI50 (SNB-75): 21.3 µM (inactive)
GI50 (IGROV-1): > 100 µM (inactive)
GI50 (SW-620): > 100 µM (inactive)
GI50 (LOX IMVI): > 100 µM (inactive)
GI50 (SF-295): > 100 µM (inactive)
GI50 (A549): > 100 µM (inactive)

COc1cc2c(cc1OC)-c1cc3cc(OC)c(OC)cc3n1CC2
GI50 (NCI-H23): 81.1 µM (inactive)
GI50 (U-251): 37.7 µM (inactive)
GI50 (XF498): 18.9 µM (inactive)
GI50 (HOP-62): 31.6 µM (inactive)
GI50 (SK-MEL-28): 34 µM (inactive)
GI50 (SR): > 100 µM (inactive)
GI50 (COLO 205): 32.4 µM (inactive)
GI50 (CAKI-1): 55.7 µM (inactive)
GI50 (SNB-19): 25.8 µM (inactive)
GI50 (KM12): 38.5 µM (inactive)
GI50 (KM-20L2): 21.6 µM (inactive)
GI50 (HOP-92): 60.3 µM (inactive)
GI50 (HCC 2998): 61 µM (inactive)
GI50 (SNB-78): 36.8 µM (inactive)
GI50 (OVCAR-8): 24.1 µM (inactive)
GI50 (LXFL 529): 54.8 µM (inactive)
GI50 (HCT-116): 32.4 µM (inactive)
GI50 (UO-31): > 100 µM (inactive)
GI50 (SF-268): 81.5 µM (inactive)
GI50 (786-0): 23.4 µM (inactive)
GI50 (UACC-257): 56 µM (inactive)
GI50 (NCI-H522): 32.5 µM (inactive)
GI50 (NCI-H460): 36 µM (inactive)
GI50 (HT-29): 16.6 µM (inactive)
GI50 (SK-OV-3): 30.5 µM (inactive)
GI50 (OVCAR-5): > 100 µM (inactive)
GI50 (SK-MEL-2): > 100 µM (inactive)
GI50 (UACC-62): 85.5 µM (inactive)
GI50 (HL-60): > 100 µM (inactive)
GI50 (DLD-1): 58.2 µM (inactive)
GI50 (CCRF-CEM): > 100 µM (inactive)
GI50 (EKVX): > 100 µM (inactive)
GI50 (K562): 26.3 µM (inactive)
GI50 (OVCAR-4): 22.7 µM (inactive)
GI50 (TK-10): 19.9 µM (inactive)
GI50 (M19-MEL): > 100 µM (inactive)
GI50 (Malme-3M): 23.8 µM (inactive)
GI50 (NCI-H226): 33.7 µM (inactive)
GI50 (A498): 14.4 µM (inactive)
GI50 (SN12C): > 100 µM (inactive)
GI50 (ACHN): 31.6 µM (inactive)
GI50 (DMS-114): 72.3 µM (inactive)
GI50 (M14): 23.4 µM (inactive)
GI50 (OVCAR-3): > 100 µM (inactive)
GI50 (MOLT-4): > 100 µM (inactive)
GI50 (SNB-75): 18.5 µM (inactive)
GI50 (IGROV-1): 90.8 µM (inactive)
GI50 (SW-620): 33.9 µM (inactive)
GI50 (RPMI-8226): 71.8 µM (inactive)
GI50 (SF-295): 13.2 µM (inactive)
GI50 (A549): 50.2 µM (inactive)

COc1cc(-c2cc(=O)c3c(O)c(OC)c(OC)c(OC)c3o2)ccc1O
GI50 (NCI-H23): 27.7 µM (inactive)
GI50 (U-251): 8.97 µM (inactive)
GI50 (SK-MEL-5): 15.3 µM (inactive)
GI50 (HOP-62): 21.6 µM (inactive)
GI50 (SK-MEL-28): 23.5 µM (inactive)
GI50 (SR): 23 µM (inactive)
GI50 (COLO 205): > 10 µM (inactive)
GI50 (SNB-19): 34 µM (inactive)
GI50 (KM12): 29.9 µM (inactive)
GI50 (RXF 393): 13 µM (inactive)
GI50 (KM-20L2): 40.2 µM (inactive)
GI50 (HOP-92): 2.33 µM (inactive)
GI50 (HCT-15): 7.74 µM
GI50 (HCC 2998): 34.6 µM (inactive)
GI50 (SNB-78): 27.7 µM (inactive)
GI50 (OVCAR-8): 16.3 µM (inactive)
GI50 (LXFL 529): 16.6 µM (inactive)
GI50 (HCT-116): 24.8 µM (inactive)
GI50 (UO-31): 28.8 µM (inactive)
GI50 (SF-268): 26.5 µM (inactive)
GI50 (HOP-18): 32.4 µM (inactive)
GI50 (786-0): 29.8 µM (inactive)
GI50 (UACC-257): 20.7 µM (inactive)
GI50 (NCI-H522): 17.1 µM (inactive)
GI50 (NCI-H460): 16.2 µM (inactive)
GI50 (SK-OV-3): 11.2 µM (inactive)
GI50 (OVCAR-5): > 100 µM (inactive)
GI50 (SK-MEL-2): 17.7 µM (inactive)
GI50 (UACC-62): 14.8 µM (inactive)
GI50 (HL-60): 31.3 µM (inactive)
GI50 (DLD-1): 23.9 µM (inactive)
GI50 (CCRF-CEM): 22.4 µM (inactive)
GI50 (EKVX): > 100 µM (inactive)
GI50 (K562): 17.8 µM (inactive)
GI50 (TK-10): 28.2 µM (inactive)
GI50 (M19-MEL): 22.8 µM (inactive)
GI50 (Malme-3M): 28.7 µM (inactive)
GI50 (A498): 2.61 µM (inactive)
GI50 (SN12C): 26.7 µM (inactive)
GI50 (SF-539): 11.8 µM (inactive)
GI50 (ACHN): 21.4 µM (inactive)
GI50 (DMS-114): 23.9 µM (inactive)
GI50 (M14): 23.3 µM (inactive)
GI50 (DMS-273): 5.08 µM (inactive)
GI50 (OVCAR-3): 32.1 µM (inactive)
GI50 (MOLT-4): 23.1 µM (inactive)
GI50 (IGROV-1): 4.84 µM (inactive)
GI50 (SW-620): 31.7 µM (inactive)
GI50 (LOX IMVI): 16.8 µM (inactive)
GI50 (RPMI-8226): 19 µM (inactive)
GI50 (SF-295): 23.4 µM (inactive)
GI50 (A549): 27.3 µM (inactive)
